Source: PubChem BioAssay (NCI)
Where “and” joins values, the source holds several entries; their conditions need not be identical. Equal entries are not always repeated.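 Dose response: 5 concentrations. Exposure: 48 h. Format: 96-well plates. Endpoint: linear interpolation; highest concentration if not reached. At the GI50, growth is halved. TGI denotes the concentration required for complete inhibition of growth.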

Tests used:
Test in all cases: inhibition of tumour cell growth, NCI panel, 48 h
SW-620 colon = system: SW-620 colon
IGROV1 ovarian = system: IGROV1 ovarian
COLO 205 colon = system: COLO 205 colon
CAKI-1 renal = system: CAKI-1 renal
M19-MEL melanoma = system: M19-MEL melanoma
XF 498 CNS = system: XF 498 CNS
LOX IMVI melanoma = system: LOX IMVI melanoma
NCI-H23 lung = system: NCI-H23 lung
LXFL 529 NSCLC = system: LXFL 529 NSCLC
KM20L2 colon = system: KM20L2 colon

SMILES | TGI (SW-620 colon) | TGI (IGROV1 ovarian) [µM] | TGI (COLO 205 colon) | TGI (CAKI-1 renal) | TGI (M19-MEL melanoma) [µM] | TGI (XF 498 CNS) [µM] | TGI (LOX IMVI melanoma) | TGI (NCI-H23 lung) | TGI (LXFL 529 NSCLC) [µM] | TGI (KM20L2 colon) [µM] | GI50 (SW-620 colon) [µM] | GI50 (IGROV1 ovarian) [µM] | GI50 (COLO 205 colon) [µM] | GI50 (CAKI-1 renal) [µM] | GI50 (LOX IMVI melanoma) [µM] | GI50 (NCI-H23 lung) [µM]
Clc1cc2nc[nH]c2cc1Cl | > 100 µM | > 100 | > 100 µM | > 100 µM | > 100 | > 100 | > 100 µM | > 100 µM | > 100 |  |  |  |  |  |  | 
CCOC(=O)C1Nc2ccc([N+](=O)[O-])cc2[C@H]2OCC[C@@H]12 (stereo partly specified) | > 100 µM | > 100 | > 100 µM | > 100 µM | > 100 | > 100 | > 100 µM | > 100 µM |  | > 100 |  |  |  |  |  | 
Cc1cc(N(CCC#N)CCC#N)ccc1/C=C(\NC(=O)/C=C/c1ccccc1)NC(=O)Nc1ccccc1C | > 100 µM | > 100 | > 100 µM | > 100 µM | > 100 |  | > 100 µM | > 100 µM | > 100 | > 100 |  |  |  |  |  | 
CS(=O)(=O)OCCCCOS(C)(=O)=O | 250 µM and > 1000 µM | > 1000 | 250 µM and > 1000 µM | 212 µM and 980 µM | 230 |  | 248 µM and > 1000 µM | 249 µM and > 1000 µM | > 250 | > 235 | > 1000 | 981 | > 1000 | 305 | 5.96 | 685
O=C(/C=C/c1ccc[nH]1)c1ccccc1 | > 100 µM |  | > 100 µM | > 100 µM | > 100 |  | > 100 µM | > 100 µM | > 100 | > 100 |  |  |  |  |  | 
Cc1ccc2oc(=O)cc(CC(=O)O)c2c1 | > 100 µM | > 100 | > 100 µM | > 100 µM | > 100 | 93.1 | > 100 µM | > 100 µM | > 100 | > 100 |  |  |  |  |  | 
CCCCN1C(=O)C2c3[nH]c4ccccc4c3C3CCCCC3C2C1=O (mixture of isomers) | > 100 µM | 75.9 | > 100 µM | 20.4 µM | > 100 | 27.8 | 24.1 µM | 78.1 µM | 29.1 | > 100 |  |  |  |  |  | 
O=c1/c(=C/c2ccccc2O)sc2nc3ccccc3n12 | > 100 µM | 85.1 |  | > 100 µM | > 100 |  | 98.3 µM | > 100 µM | > 100 | > 100 |  |  |  |  |  | 
COc1cccc(-c2cc(C(=O)Nc3ccc(Cl)cc3)nc(N)n2)c1 | > 100 µM | > 100 | 71.4 µM | > 100 µM | > 100 | > 100 | > 100 µM | > 100 µM | > 100 | > 100 |  |  |  |  |  | 
OCC(O)C(O)C(O)c1nn[nH]n1 (stereo unspecified) | > 100 µM | > 100 | > 100 µM | > 100 µM | > 100 |  | > 100 µM | > 100 µM | > 100 |  |  |  |  |  |  | 
